# Measurements: patent US20040121410A1, “Pain signaling molecules” (priority 2002, published 2004)
# How the values were obtained:
# [1] = tested on: γ2-MSH-induced calcium release in HEK-MrgC11; assay: γ2-MSH-induced [Ca2+]i response in HEK-MrgC11 with pathway inhibitors; type: cell-based, human; conditions: HEK-MrgC11, 1 μM γ2-MSH; 10 μM U73122 or U73343 10 min pretreatment; 1 μM TG in 2 mM EGTA
# Protocol: (§1) Cells loaded with Fura-2/AM were stimulated with each agonist and fluorescence was recorded. Graphs represent an average plot of [Ca^2+]i measurements versus time (in s) in a minimum of 8 cells from representative experiments. Individual data points represent images taken at 0.8-s intervals. […] After a 10 minute pretreatment with U73122 and U73343, each agonist was added. FIGS. 2B and E show the extracellular [Ca^2+] dependency of Ca^2+ mobilization. Cells were preincubated for 2 minutes with 2 mM EGTA (open circles) or normal medium containing 1.2 mM calcium (closed circles) and then 3 μM FLRFa or 1 μM γ2-MSH was added. […] In the presence of 2 mM EGRA, TG (1 μM final concentration) was added to deplete internal Ca^2+ stores.
# (§2) The calcium source responsible for the initial peak in [Ca^2+]i was determined by depleting internal calcium stores with the application of 1 μM TG (FIGS. 2C and F).
# (§3) Heterotrimeric G proteins of the Gαi and Gαq class are involved in the propagation of signals from GPCRs leading to [Ca^2+]i elevation (Guderman et al. Ann. Rev. Pharmacol. Toxicol. 36:429-459 (1996)). To determine whether Gαi/o proteins are involved in the [Ca^2+]i response, we pretreated HEK-MrgA1 or HEK-MrgC11 cells with PTX (100 ng/ml) for 16 h. […] The dose dependency in [Ca^2+]i responses for both receptors were not affected by PTX (FIGS. 4A and D).
# [2] = tested on: FLRFa-induced calcium release in HEK-MrgA1; assay: FLRFa-induced [Ca2+]i response in HEK-MrgA1 with pathway inhibitors; type: cell-based, human; conditions: HEK-MrgA1, 3 μM FLRFa; 10 μM U73122 or U73343 10 min pretreatment; 1 μM TG in 2 mM EGTA
# Protocol: as §1, §2, §3
compound,measurement,setting,value
COc1ccc2c(c1)CC[C@@H]1[C@@H]2CC[C@]2(C)[C@@H](NCCCCCCN3C(=O)CCC3=O)CC[C@@H]12 [U73343],effect on γ2-MSH-induced calcium response,[1],did not significantly affect
same,effect on FLRFa-induced calcium response,[2],did not significantly affect
